Experimental data as given in US20230033021A1, “TREATMENT OF A DISEASE OF THE GASTROINTESTINAL TRACT WITH AN INTEGRIN INHIBITOR” (Progenity, Inc., priority 2018, published 2023).
Blank lines part the entries; values can stand above or below the compound they belong to.

What was measured:
IL-6 = settings: low dose PO group (15 mg/kg), by 12 h post-dose
[1] = Pharmacokinetic study of oral vs intra-cecal administration of tacrolimus: blood, rectal content, GI tissue and luminal content (Example 13); parameters: species or system Yorkshire-Cross farm swine; settings: female, Yorkshire-Cross, swine, in vivo, 0.09 mg/kg
From the text: No further randomization procedure was employed.

GM-CSF = GM-CSF in plasma and colon tissue by ELISA, DSS-induced colitis mouse model; assay type: in vivo, mice; settings: between IC and PO treatment groups, plasma or colon tissue (data not shown)

SMILES: C[C@@H]1CCN(C(=O)CC#N)C[C@@H]1N(C)c1ncnc2[nH]ccc12.O=C(O)CC(O)(CC(=O)O)C(=O)O [tofacitinib citrate]
- IL-6 expression in colon tissue (IL-6): Recovery from IL-6 inhibition

- Tissue(mean) (ng/g)/Trough(12 hr)(ng/mL) Ratio [1]: 0
SMILES: C=CC[C@@H]1/C=C(\C)C[C@H](C)C[C@H](OC)[C@H]2O[C@@](O)(C(=O)C(=O)N3CCCC[C@H]3C(=O)O[C@H](/C(C)=C/[C@@H]3CC[C@@H](O)[C@H](OC)C3)[C@H](C)[C@@H](O)CC1=O)[C@H](C)C[C@@H]2OC [tacrolimus]

SMILES: C[C@@H]1CCN(C(=O)CC#N)C[C@@H]1N(C)c1ncnc2[nH]ccc12 [tofacitinib]
- GM-CSF levels (GM-CSF): nor was there a significant difference
